Assay results reported in US8754128B2, “Dioxoanthracene sulphonate derivatives” (Laboratoire Medidom SA, priority 2007, dated 2014).
≈ marks a conversion by molar mass, not a printed value.

Key:
Solubility in water = format: physicochemical; details: for solubility in water (in words): water / aqueous solution; for solubility of test solutions for chondrocyte culture: rhein needed five minutes sonication
[1] = tested on: IL-1 β cytokine production by human normal and osteoarthritic (OA) chondrocytes; assay: In vitro IL-1β inhibition in LPS-stimulated human chondrocytes (ELISA); format: cell-based
Description: The activity of the compound of example 1, and of rhein in inhibiting the lipopolysaccharide (LPS) stimulated production of IL-1 β cytokine by human normal and osteoarthritic (OA) chondrocytes was studied.
Human cartilage was obtained during orthopaedic surgery for total hip prosthesis due to traumatic fracture in normal subjects or OA patients. Patients with OA were selected on the basis of the following criteria (1) bi-lateral OA, (2) diagnoses of moderate OA (grade I-III, Kellgren-Laurence), supported by radiology and pathology.
A suspension of isolated chondrocytes was prepared from cartilage specimens obtained from four OA patient and nine normal subjects. Specimens were obtained and maintained under aseptic conditions. The cartilage was cut into small fragments and incubated with 1 mg/ml clostridial collagenase in carbonate/bicarbonate buffer for 48 hours at 37° C. Once separated from the cartilage matrix, chondrocytes were centrifuged at 1500 RPM for five minutes. The separated chondrocytes, suspended in culture medium (DMEM supplemented with 10% SCF) were used for the experiment. Cell viability was evaluated by Trypan blue exclusion.
In vitro stimulation of chondrocytes with bacterial endotoxin (LPS) for the production of IL-1 β was carried out as follows: […]

colon and kidney cells = details: Comet assay, Müller et al. 1996; cited from earlier work

CC(=O)Oc1cccc2c1C(=O)c1c(OC(C)=O)cc(C(=O)O)cc1C2=O [diacerein]
solubility in water (in words) (Solubility in water): practically insoluble in water

O=C(O)c1cc(O)c2c(c1)C(=O)c1cccc(O)c1C2=O [rhein, 4,5-dihydroxy-9,10-dioxo-2-anthracene carboxylic acid]
solubility of test solutions for chondrocyte culture (Solubility in water): solubility problems
solubility in water (in words) (Solubility in water): practically insoluble in water

O=C(O)c1cc(O)c2c(c1)C(=O)c1ccc(S(=O)(=O)O)c(O)c1C2=O [Example 1, 6-sulfo-4,5-dihydroxy-9,10-dioxo-2-anthracene carboxylic acid]
IL-1β inhibition activity compared with rhein (FIG. 3) ([1]; LPS-stimulated normal and OA chondrocytes, 48 hours, ELISA): significantly increased IL-1β inhibition activity compared with rhein
inhibition of IL-1β production (FIG. 4) ([1]; LPS-stimulated normal chondrocytes, dose-dependent): significant inhibition of IL-1β production
solubility of test solutions for chondrocyte culture (Solubility in water): good solubility
solubility (Solubility in water; water): 1200 µg/mL (≈ 3.29 mM)

O=C1c2cccc(O)c2C(=O)c2c(O)cc(CO)cc21 [Aloe-emodin]
clastogenic effect (colon and kidney cells): clastogenic effect in colon and kidney cells
